Test results taken from patent US20230114728A1 (Venatorx Pharmaceuticals, Inc., priority 2019, published 2023).
≈ marks a conversion by molar mass, not a printed value.

Key:
Assay in all cases: Broth microdilution MIC in iron-depleted CAMHB (IDM)
Format in all cases: cell-based
[1] = system: A. baumannii ATCC 17978; conditions: Acinetobacter baumannii, ATCC17978, read-out: Minimum Inhibitory Concentration, ATCC 17978
How it was run: (§1)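 Iron-limited medium: CAMHB chelated with Chelex 100, cations restored, pH 7.3. CLSI-based microdilution, 2-8×10^5 CFU/mL inoculum, 37° C for 16-20 h (P. aeruginosa) or 20-24 h (A. baumannii). Endpoint is no visible growth.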

[2] = system: P. aeruginosa CDC-0054 producing VIM-4, OXA-50, and PAO; conditions: Pseudomonas aeruginosa, read-out: Minimum Inhibitory Concentration, P. aeruginosa CDC-0054
How it was run: as §1

[3] = system: P. aeruginosa CDC-0090 producing KPC-5, OXA-50, and PAO; conditions: Pseudomonas aeruginosa, read-out: Minimum Inhibitory Concentration, P. aeruginosa CDC-0090
How it was run: as §1

[4] = system: P. aeruginosa ATCC 35151; conditions: Pseudomonas aeruginosa, ATCC35151; iron-depleted MHB (IDM); hyper-permeable strain; read-out: Minimum Inhibitory Concentration, P. aeruginosa ATCC 35151
How it was run: as §1

[5] = system: A. baumannii CDC-0083 producing NDM-1, PER-7, OXA-23, and OXA-69; conditions: Acinetobacter baumannii, read-out: Minimum Inhibitory Concentration, CDC-0083
How it was run: as §1

[6] = system: A. baumannii CDC-0033 producing NDM-1, and OXA-94; conditions: Acinetobacter baumannii, read-out: Minimum Inhibitory Concentration, CDC-0033
How it was run: as §1

[7] = system: A. baumannii CDC-0036 OXA-65, and OXA-24; conditions: Acinetobacter baumannii, read-out: Minimum Inhibitory Concentration, CDC-0036
How it was run: as §1

| Structure (SMILES) | MIC [1] | MIC [2] | MIC [3] | MIC [4] | MIC [5] | MIC [6] | MIC [7] |
| --- | --- | --- | --- | --- | --- | --- | --- |
| CCN1CCN(C(=O)N[C@@H](C(=O)N[C@H]2Cc3ccc(F)c(C(=O)O)c3OB2O)c2c(Cl)cc(O)c(O)c2F)C(=O)C1=O (single isomer, unassigned) [Example 207] | 0.5 to 1 µg/mL (≈ 0.819 to 1.64 µM) | 2 to 4 µg/mL (≈ 3.27 to 6.55 µM) | 2 to 4 µg/mL (≈ 3.27 to 6.55 µM) | 0.25 µg/mL (≈ 0.409 µM) | > 128 µg/mL | 32 to 64 µg/mL (≈ 52.4 to 105 µM) | 2 to 4 µg/mL (≈ 3.27 to 6.55 µM) |
| O=C(NCCCN1CCN(C(=O)NC(C(=O)N[C@H]2Cc3ccc(F)c(C(=O)O)c3OB2O)c2ncc(O)cc2F)C(=O)C1=O)c1ccc(O)c(O)c1Cl (stereo partly drawn) [Example 3, (3R)-3-(2-(4-(3-(2-chloro-3,4-dihydroxybenzamido)propyl)-2,3-dioxopiperazine-1-carboxamido)-2-(3-fluoro-5-hydroxypyridin-2-yl)acetamido)-7-fluoro-2-hydroxy-3,4-dihydro-2H-benzo[e][1,2]oxaborinine-8-carboxylic acid] | 8 to 16 µg/mL (≈ 10.5 to 21 µM) | 2 to 4 µg/mL (≈ 2.63 to 5.26 µM) | 8 to 16 µg/mL (≈ 10.5 to 21 µM) | 0.25 µg/mL (≈ 0.329 µM) | 32 to 64 µg/mL (≈ 42.1 to 84.1 µM) | 32 to 64 µg/mL (≈ 42.1 to 84.1 µM) | 32 to 64 µg/mL (≈ 42.1 to 84.1 µM) |
| O=C(NCCCN1CCN(C(=O)NC(C(=O)N[C@H]2Cc3cccc(C(=O)O)c3OB2O)c2ncc(O)cc2F)C(=O)C1=O)c1ccc(O)c(O)c1Cl (stereo partly drawn) [Example 1, (3R)-3-(2-(4-(3-(2-chloro-3,4-dihydroxybenzamido)propyl)-2,3-dioxopiperazine-1-carboxamido)-2-(3-fluoro-5-hydroxypyridin-2-yl)acetamido)-2-hydroxy-3,4-dihydro-2H-benzo[e][1,2]oxaborinine-8-carboxylic acid] |  |  |  | 0.5 to 1 µg/mL (≈ 0.673 to 1.35 µM) |  |  |  |
| CCN1CCN(C(=O)N[C@@H](C(=O)N[C@H]2Cc3ccc(F)c(C(=O)O)c3OB2O)c2ccc(O)c(O)c2)C(=O)C1=O [Example 211, (R)-3-((R)-2-(3,4-dihydroxyphenyl)-2-(4-ethyl-2,3-dioxopiperazine-1-carboxamido)acetamido)-7-fluoro-2-hydroxy-3,4-dihydro-2H-benzo[e][1,2]oxaborinine-8-carboxylic acid] | 2 to 4 µg/mL (≈ 3.58 to 7.16 µM) | 8 to 16 µg/mL (≈ 14.3 to 28.7 µM) | 8 to 16 µg/mL (≈ 14.3 to 28.7 µM) | 0.25 µg/mL (≈ 0.448 µM) | > 128 µg/mL | 32 to 64 µg/mL (≈ 57.3 to 115 µM) | 8 to 16 µg/mL (≈ 14.3 to 28.7 µM) |
| CCN1CCN(C(=O)N[C@@H](C(=O)N[C@H]2Cc3cc(Cl)c(F)c(C(=O)O)c3OB2O)c2c(F)cc(O)c(O)c2Cl)C(=O)C1=O [Example 191, (R)-6-chloro-3-((R)-2-(2-chloro-6-fluoro-3,4-dihydroxyphenyl)-2-(4-ethyl-2,3-dioxopiperazine-1-carboxamido)acetamido)-7-fluoro-2-hydroxy-3,4-dihydro-2H-benzo[e][1,2]oxaborinine-8-carboxylic acid] | 2 to 4 µg/mL (≈ 3.1 to 6.2 µM) | 2 to 4 µg/mL (≈ 3.1 to 6.2 µM) | 8 to 16 µg/mL (≈ 12.4 to 24.8 µM) | 0.25 µg/mL (≈ 0.387 µM) | > 128 µg/mL | > 128 µg/mL | 32 to 64 µg/mL (≈ 49.6 to 99.2 µM) |
| Nc1nc(/C(=N/OC[C@H](NC(=O)c2ccc(O)c(O)c2Cl)C(=O)O)C(=O)N[C@H]2Cc3cccc(C(=O)O)c3OB2O)cs1 [Example 6, (R)-3-((Z)-2-(2-aminothiazol-4-yl)-2-(((S)-2-carboxy-2-(2-chloro-3,4-dihydroxybenzamido)ethoxy)imino)acetamido)-2-hydroxy-3,4-dihydro-2H-benzo[e][1,2]oxaborinine-8-carboxylic acid] | 8 to 16 µg/mL (≈ 12.6 to 25.2 µM) | 0.5 to 1 µg/mL (≈ 0.789 to 1.58 µM) | 0.5 to 1 µg/mL (≈ 0.789 to 1.58 µM) | 0.25 µg/mL (≈ 0.394 µM) | 32 to 64 µg/mL (≈ 50.5 to 101 µM) | 32 to 64 µg/mL (≈ 50.5 to 101 µM) | 32 to 64 µg/mL (≈ 50.5 to 101 µM) |
| CS(=O)(=O)N1CCN(C(=O)NC(C(=O)N[C@H]2Cc3ccc(F)c(C(=O)O)c3OB2O)c2c(Cl)cc(O)c(O)c2F)C1=O (stereo partly drawn) [Example 208, (3R)-3-(2-(6-chloro-2-fluoro-3,4-dihydroxyphenyl)-2-(3-(methylsulfonyl)-2-oxoimidazolidine-1-carboxamido)acetamido)-7-fluoro-2-hydroxy-3,4-dihydro-2H-benzo[e][1,2]oxaborinine-8-carboxylic acid] | 0.5 to 1 µg/mL (≈ 0.79 to 1.58 µM) | 32 to 64 µg/mL (≈ 50.6 to 101 µM) | 2 to 4 µg/mL (≈ 3.16 to 6.32 µM) | 0.25 µg/mL (≈ 0.395 µM) | > 128 µg/mL | 32 to 64 µg/mL (≈ 50.6 to 101 µM) | 8 to 16 µg/mL (≈ 12.6 to 25.3 µM) |
| O=C(NCCN1CCN(C(=O)NC(C(=O)N[C@H]2Cc3ccc(F)c(C(=O)O)c3OB2O)c2ncc(O)cc2F)C(=O)C1=O)c1c(F)cc(O)c(O)c1Cl (stereo partly drawn) [Example 5, (3R)-3-(2-(4-(2-(2-chloro-6-fluoro-3,4-dihydroxybenzamido)ethyl)-2,3-dioxopiperazine-1-carboxamido)-2-(3-fluoro-5-hydroxypyridin-2-yl)acetamido)-7-fluoro-2-hydroxy-3,4-dihydro-2H-benzo[e][1,2]oxaborinine-8-carboxylic acid] | 0.25 µg/mL (≈ 0.327 µM) | 0.25 µg/mL (≈ 0.327 µM) | 0.25 µg/mL (≈ 0.327 µM) | 0.25 µg/mL (≈ 0.327 µM) | 32 to 64 µg/mL (≈ 41.8 to 83.7 µM) | 2 to 4 µg/mL (≈ 2.61 to 5.23 µM) | 32 to 64 µg/mL (≈ 41.8 to 83.7 µM) |
| Nc1nc(C(NC(=O)N2CCN(CCNC(=O)c3ccc(O)c(O)c3Cl)C(=O)C2=O)C(=O)N[C@H]2Cc3ccc(F)c(C(=O)O)c3OB2O)c(F)s1 (stereo partly drawn) [Example 4, (3R)-3-(2-(2-amino-5-fluorothiazol-4-yl)-2-(4-(2-(2-chloro-3,4-dihydroxybenzamido)ethyl)-2,3-dioxopiperazine-1-carboxamido)acetamido)-7-fluoro-2-hydroxy-3,4-dihydro-2H-benzo[e][1,2]oxaborinine-8-carboxylic acid] | 0.25 µg/mL (≈ 0.333 µM) | 0.5 to 1 µg/mL (≈ 0.665 to 1.33 µM) | 0.25 µg/mL (≈ 0.333 µM) | 0.25 µg/mL (≈ 0.333 µM) | 32 to 64 µg/mL (≈ 42.6 to 85.1 µM) | 32 to 64 µg/mL (≈ 42.6 to 85.1 µM) | 32 to 64 µg/mL (≈ 42.6 to 85.1 µM) |
| NCCN1CCN(C(=O)N[C@@H](C(=O)N[C@H]2Cc3ccc(F)c(C(=O)O)c3OB2O)c2c(F)c(F)c(O)c(O)c2Cl)C(=O)C1=O [Example 226, (R)-3-((R)-2-(4-(2-aminoethyl)-2,3-dioxopiperazine-1-carboxamido)-2-(2-chloro-5,6-difluoro-3,4-dihydroxyphenyl)acetamido)-7-fluoro-2-hydroxy-3,4-dihydro-2H-benzo[e][1,2]oxaborinine-8-carboxylic acid] | 0.5 to 1 µg/mL (≈ 0.777 to 1.55 µM) | 2 to 4 µg/mL (≈ 3.11 to 6.21 µM) |  | 0.25 µg/mL (≈ 0.388 µM) | 2 to 4 µg/mL (≈ 3.11 to 6.21 µM) | 8 to 16 µg/mL (≈ 12.4 to 24.9 µM) | 8 to 16 µg/mL (≈ 12.4 to 24.9 µM) |
| C[C@H]1CN(CCNC(=O)c2ccc(O)c(O)c2Cl)C(=O)C(=O)N1C(=O)NC(C(=O)N[C@H]1Cc2cccc(C(=O)O)c2OB1O)c1ncc(O)cc1F (stereo partly drawn) [Example 2, (3R)-3-(2-((S)-4-(2-(2-chloro-3,4-dihydroxybenzamido)ethyl)-6-methyl-2,3-dioxopiperazine-1-carboxamido)-2-(3-fluoro-5-hydroxypyridin-2-yl)acetamido)-2-hydroxy-3,4-dihydro-2H-benzo[e][1,2]oxaborinine-8-carboxylic acid] | 0.5 to 1 µg/mL (≈ 0.673 to 1.35 µM) | 2 to 4 µg/mL (≈ 2.69 to 5.38 µM) | 2 to 4 µg/mL (≈ 2.69 to 5.38 µM) | 0.25 µg/mL (≈ 0.337 µM) | 8 to 16 µg/mL (≈ 10.8 to 21.5 µM) | 8 to 16 µg/mL (≈ 10.8 to 21.5 µM) | 32 to 64 µg/mL (≈ 43.1 to 86.2 µM) |
| CCN1CCN(C(=O)N[C@H](C(=O)N[C@H]2Cc3ccc(F)c(C(=O)O)c3OB2O)c2ccc(O)c(O)c2)C(=O)C1=O [Example 210, (R)-3-((S)-2-(3,4-dihydroxyphenyl)-2-(4-ethyl-2,3-dioxopiperazine-1-carboxamido)acetamido)-7-fluoro-2-hydroxy-3,4-dihydro-2H-benzo[e][1,2]oxaborinine-8-carboxylic acid] | > 128 µg/mL | > 128 µg/mL | > 128 µg/mL | 2 to 4 µg/mL (≈ 3.58 to 7.16 µM) | > 128 µg/mL | > 128 µg/mL | > 128 µg/mL |
| CS(=O)(=O)N1CCN(C(=O)N[C@@H](C(=O)N[C@H]2Cc3ccc(F)c(C(=O)O)c3OB2O)c2cc(F)c(O)c(O)c2Cl)C1=O (single isomer, unassigned) [Example 189] | 0.25 µg/mL (≈ 0.395 µM) | 0.5 to 1 µg/mL (≈ 0.79 to 1.58 µM) | 0.5 to 1 µg/mL (≈ 0.79 to 1.58 µM) | 0.25 µg/mL (≈ 0.395 µM) | 32 to 64 µg/mL (≈ 50.6 to 101 µM) | 2 to 4 µg/mL (≈ 3.16 to 6.32 µM) | 2 to 4 µg/mL (≈ 3.16 to 6.32 µM) |
| NCCCN1CCN(C(=O)N[C@@H](C(=O)N[C@H]2Cc3cc(Cl)c(F)c(C(=O)O)c3OB2O)c2c(F)cc(O)c(O)c2Cl)C(=O)C1=O [Example 190, (R)-3-((R)-2-(4-(3-aminopropyl)-2,3-dioxopiperazine-1-carboxamido)-2-(2-chloro-6-fluoro-3,4-dihydroxyphenyl)acetamido)-6-chloro-7-fluoro-2-hydroxy-3,4-dihydro-2H-benzo[e][1,2]oxaborinine-8-carboxylic acid] | 8 to 16 µg/mL (≈ 11.9 to 23.7 µM) | 8 to 16 µg/mL (≈ 11.9 to 23.7 µM) | 0.5 to 1 µg/mL (≈ 0.742 to 1.48 µM) | 0.5 to 1 µg/mL (≈ 0.742 to 1.48 µM) | > 128 µg/mL | > 128 µg/mL | > 128 µg/mL |
